# Columns and labels:
# [1] = Phase 1 clinical pharmacokinetics in plasma; format: in vivo, human
# RET = RET (Homo sapiens, UniProt P07949); assay: Tyrosine kinase inhibition; format: biochemical
# 8305C cells = assay: Tumor cell proliferation in vitro; format: cell-based
# TT cells = assay: Tumor cell proliferation in vitro; format: cell-based, human
# VEGFR and ERK activation = assay: VEGF165-stimulated activation of VEGFR and ERK in HUVEC cells; format: cell-based, human; settings: 50 ng/mL VEGF165, concentration-dependent
# Dog plasma kinetics = format: in vivo
# [2] = Cynomolgus monkey plasma kinetics; format: in vivo
# Plasma protein binding [3] = format: in vitro ADME; settings: monkeys
# Plasma protein binding [4] = format: in vitro ADME; settings: humans
# [5] = Excretion after gastric lavage; format: in vivo, rats
# ALK1 = ALK1 (Homo sapiens, UniProt P37023); assay: Tyrosine kinase inhibition; format: biochemical
# PDGFRβ = PDGFRβ (Homo sapiens, UniProt P09619); assay: Tyrosine kinase inhibition; format: biochemical
# Metabolites in plasma = settings: monkeys
# Chain of ALK1 (P37023 142-503 limits assumed): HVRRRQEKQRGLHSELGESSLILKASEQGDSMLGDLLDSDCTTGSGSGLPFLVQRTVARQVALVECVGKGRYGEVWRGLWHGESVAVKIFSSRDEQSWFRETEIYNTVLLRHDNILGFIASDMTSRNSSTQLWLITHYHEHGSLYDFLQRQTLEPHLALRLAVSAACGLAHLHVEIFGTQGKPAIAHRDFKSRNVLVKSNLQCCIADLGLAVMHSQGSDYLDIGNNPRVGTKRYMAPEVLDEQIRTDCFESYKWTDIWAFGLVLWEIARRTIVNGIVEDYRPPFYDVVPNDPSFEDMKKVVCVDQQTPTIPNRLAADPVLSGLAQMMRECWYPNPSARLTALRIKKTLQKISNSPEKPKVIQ
# Chain of RET (P07949 29-1114): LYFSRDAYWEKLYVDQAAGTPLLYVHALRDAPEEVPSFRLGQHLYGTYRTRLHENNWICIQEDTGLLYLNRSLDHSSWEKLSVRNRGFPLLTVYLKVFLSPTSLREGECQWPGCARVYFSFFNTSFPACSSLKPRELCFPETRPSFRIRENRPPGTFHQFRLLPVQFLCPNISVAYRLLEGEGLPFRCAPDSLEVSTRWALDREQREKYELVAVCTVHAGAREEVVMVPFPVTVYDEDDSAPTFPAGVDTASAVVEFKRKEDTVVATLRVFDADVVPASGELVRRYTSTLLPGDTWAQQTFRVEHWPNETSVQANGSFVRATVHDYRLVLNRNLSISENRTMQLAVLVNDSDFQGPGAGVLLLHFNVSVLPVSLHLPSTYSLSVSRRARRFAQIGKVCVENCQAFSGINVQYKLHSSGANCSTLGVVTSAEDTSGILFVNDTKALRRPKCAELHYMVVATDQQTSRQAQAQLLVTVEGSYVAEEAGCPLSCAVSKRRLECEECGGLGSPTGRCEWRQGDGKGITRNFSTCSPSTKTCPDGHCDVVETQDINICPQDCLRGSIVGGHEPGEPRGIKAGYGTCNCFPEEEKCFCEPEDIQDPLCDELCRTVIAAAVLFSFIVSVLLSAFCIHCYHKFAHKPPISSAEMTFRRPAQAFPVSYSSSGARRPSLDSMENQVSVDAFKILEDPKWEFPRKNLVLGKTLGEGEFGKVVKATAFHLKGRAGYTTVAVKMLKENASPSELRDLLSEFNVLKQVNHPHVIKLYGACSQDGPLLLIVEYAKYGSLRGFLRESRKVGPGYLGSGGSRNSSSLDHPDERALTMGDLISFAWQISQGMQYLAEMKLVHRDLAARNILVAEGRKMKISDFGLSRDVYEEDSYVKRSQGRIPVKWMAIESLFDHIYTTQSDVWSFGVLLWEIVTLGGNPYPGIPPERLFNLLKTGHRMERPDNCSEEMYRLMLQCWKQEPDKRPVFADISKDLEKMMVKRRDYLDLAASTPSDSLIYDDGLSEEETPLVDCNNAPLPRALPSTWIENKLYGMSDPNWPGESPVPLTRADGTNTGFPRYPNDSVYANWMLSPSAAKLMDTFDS
# Chain of PDGFRβ (P09619 33-1106): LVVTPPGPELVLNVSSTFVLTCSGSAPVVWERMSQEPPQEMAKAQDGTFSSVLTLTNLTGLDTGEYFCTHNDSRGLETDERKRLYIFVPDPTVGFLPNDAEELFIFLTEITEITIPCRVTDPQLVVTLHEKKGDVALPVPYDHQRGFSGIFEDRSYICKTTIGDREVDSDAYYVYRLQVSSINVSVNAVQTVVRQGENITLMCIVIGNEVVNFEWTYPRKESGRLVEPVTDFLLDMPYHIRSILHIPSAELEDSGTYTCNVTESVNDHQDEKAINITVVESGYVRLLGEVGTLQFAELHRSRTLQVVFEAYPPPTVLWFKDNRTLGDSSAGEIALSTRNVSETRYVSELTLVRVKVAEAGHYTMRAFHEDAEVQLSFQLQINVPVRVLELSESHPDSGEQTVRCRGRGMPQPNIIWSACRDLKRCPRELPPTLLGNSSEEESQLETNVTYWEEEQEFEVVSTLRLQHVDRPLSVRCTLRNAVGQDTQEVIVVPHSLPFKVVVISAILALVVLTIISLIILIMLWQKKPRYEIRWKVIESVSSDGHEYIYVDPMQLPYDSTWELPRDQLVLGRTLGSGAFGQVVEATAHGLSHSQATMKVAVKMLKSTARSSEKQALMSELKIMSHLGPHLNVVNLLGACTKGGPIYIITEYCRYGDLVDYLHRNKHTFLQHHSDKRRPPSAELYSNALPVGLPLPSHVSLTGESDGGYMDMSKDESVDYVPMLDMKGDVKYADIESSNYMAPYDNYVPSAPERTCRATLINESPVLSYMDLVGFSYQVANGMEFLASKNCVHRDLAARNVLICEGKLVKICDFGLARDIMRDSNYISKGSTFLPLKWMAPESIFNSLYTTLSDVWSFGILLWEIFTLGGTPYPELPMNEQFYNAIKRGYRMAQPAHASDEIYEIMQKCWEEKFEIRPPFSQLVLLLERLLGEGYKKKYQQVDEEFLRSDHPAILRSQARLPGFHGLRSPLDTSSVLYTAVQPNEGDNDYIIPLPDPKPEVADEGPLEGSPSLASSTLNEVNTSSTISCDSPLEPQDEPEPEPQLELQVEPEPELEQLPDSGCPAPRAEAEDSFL
smiles,measurement,setting,value
"COc1cc2c(Nc3ccc(Br)cc3F)ncnc2cc1OCCCCN(C)C.Cl.Cl [HA121-28, N-(4-bromo-2-fluorophenyl)-7-(4-(dimethylamino)butoxy)-6-methoxy quinazolin-4-amine dihydrochloride]","Cmax,ss, Mean (CV%)","[1]; Steady State, 800 mg (N=3)",1067.0 (216.4) ng/mL
same,"Tmax,ss, median [Min-Max]","[1]; Steady State, 800 mg (N=3)",6 [4-8] h
same,time to steady state,[1]; multiple dosing,two
same,IC50,RET,8.72 nM
same,IC50,8305C cells,623 ± 80.3 nM
same,IC50,TT cells,3830 ± 91.5 nM
same,activation of VEGFR and downstream ERK,VEGFR and ERK activation,significantly inhibited
same,AUC0-72h,Dog plasma kinetics; 7 consecutive days (5 mg/kg),639 ± 69.0 ng·h/mL
same,AUC0-∞,Dog plasma kinetics; 7 consecutive days (5 mg/kg),655 ± 72.2 ng·h/mL
same,CL,Dog plasma kinetics; 7 consecutive days (5 mg/kg),175 ± 21.5 mL/min/kg
same,Cmax,Dog plasma kinetics; 7 consecutive days (5 mg/kg),30.6 ± 3.25 ng/mL
same,MRT0-∞,Dog plasma kinetics; 7 consecutive days (5 mg/kg),18.5 ± 1.89 h
same,Tmax,Dog plasma kinetics; 7 consecutive days (5 mg/kg),6.17 ± 2.48 h
same,Vd,Dog plasma kinetics; 7 consecutive days (5 mg/kg),214 ± 25.1 L/kg
same,t1/2,Dog plasma kinetics; 7 consecutive days (5 mg/kg),14.2 ± 1.19 h
same,F (oral bioavailability),Dog plasma kinetics; dog,56.0%
same,AUC0-72h,Dog plasma kinetics; high dose (10 mg/kg),837 ± 207 ng·h/mL
same,AUC0-∞,Dog plasma kinetics; high dose (10 mg/kg),848 ± 212 ng·h/mL
same,CL,Dog plasma kinetics; high dose (10 mg/kg),212 ± 75.2 mL/min/kg
same,Cmax,Dog plasma kinetics; high dose (10 mg/kg),58.9 ± 26.7 ng/mL
same,MRT0-72h,Dog plasma kinetics; high dose (10 mg/kg),14.8 ± 1.96 h
same,MRT0-∞,Dog plasma kinetics; high dose (10 mg/kg),15.7 ± 2.45 h
same,Tmax,Dog plasma kinetics; high dose (10 mg/kg),2.17 ± 0.753 h
same,Vd,Dog plasma kinetics; high dose (10 mg/kg),197 ± 57.5 L/kg
same,t1/2,Dog plasma kinetics; high dose (10 mg/kg),11.0 ± 1.51 h
same,AUC0-72h,Dog plasma kinetics; intravenous (2.5 mg/kg),489 ± 73.0 ng·h/mL
same,AUC0-∞,Dog plasma kinetics; intravenous (2.5 mg/kg),493 ± 73.7 ng·h/mL
same,C5min,Dog plasma kinetics; intravenous (2.5 mg/kg),124 ± 17.6 ng/mL
same,CL,Dog plasma kinetics; intravenous (2.5 mg/kg),86.3 ± 14.8 mL/min/kg
same,MRT0-72h,Dog plasma kinetics; intravenous (2.5 mg/kg),10.9 ± 1.30 h
same,MRT0-∞,Dog plasma kinetics; intravenous (2.5 mg/kg),11.5 ± 1.51 h
same,Vd,Dog plasma kinetics; intravenous (2.5 mg/kg),85.0 ± 27.0 L/kg
same,t1/2,Dog plasma kinetics; intravenous (2.5 mg/kg),11.2 ± 1.70 h
same,AUC0-72h,Dog plasma kinetics; low dose (2.5 mg/kg),274 ± 68.2 ng·h/mL
same,AUC0-∞,Dog plasma kinetics; low dose (2.5 mg/kg),279 ± 70.5 ng·h/mL
same,CL,Dog plasma kinetics; low dose (2.5 mg/kg),157 ± 37.3 mL/min/kg
same,Cmax,Dog plasma kinetics; low dose (2.5 mg/kg),13.4 ± 2.71 ng/mL
same,MRT0-72h,Dog plasma kinetics; low dose (2.5 mg/kg),16.3 ± 2.03 h
same,MRT0-∞,Dog plasma kinetics; low dose (2.5 mg/kg),17.6 ± 2.45 h
same,Tmax,Dog plasma kinetics; low dose (2.5 mg/kg),6.50 ± 3.51 h
same,Vd,Dog plasma kinetics; low dose (2.5 mg/kg),160 ± 41.3 L/kg
same,t1/2,Dog plasma kinetics; low dose (2.5 mg/kg),11.8 ± 1.00 h
same,AUC0-72h,Dog plasma kinetics; medium dose (5 mg/kg),393 ± 74.0 ng·h/mL
same,AUC0-∞,Dog plasma kinetics; medium dose (5 mg/kg),398 ± 75.3 ng·h/mL
same,CL,Dog plasma kinetics; medium dose (5 mg/kg),217 ± 42.8 mL/min/kg
same,Cmax,Dog plasma kinetics; medium dose (5 mg/kg),24.8 ± 3.90 ng/mL
same,MRT0-72h,Dog plasma kinetics; medium dose (5 mg/kg),14.3 ± 1.36 h
same,MRT0-∞,Dog plasma kinetics; medium dose (5 mg/kg),15.2 ± 1.57 h
same,Tmax,Dog plasma kinetics; medium dose (5 mg/kg),2.17 ± 0.753 h
same,Vd,Dog plasma kinetics; medium dose (5 mg/kg),217 ± 53.6 L/kg
same,t1/2,Dog plasma kinetics; medium dose (5 mg/kg),11.5 ± 1.16 h
same,AUC0-72h,[2]; gavage (5 mg/kg),1680 ± 766 ng·h/mL
same,AUC0-∞,[2]; gavage (5 mg/kg),1920 ± 992 ng·h/mL
same,CL,[2]; gavage (5 mg/kg),50.8 ± 20.3 mL/min/kg
same,Cmax,[2]; gavage (5 mg/kg),75.9 ± 27.8 ng/mL
same,MRT0-72h,[2]; gavage (5 mg/kg),20.9 ± 2.67 h
same,MRT0-∞,[2]; gavage (5 mg/kg),30.5 ± 8.00 h
same,Tmax,[2]; gavage (5 mg/kg),6.75 ± 1.50 h
same,Vd,[2]; gavage (5 mg/kg),100 ± 24.1 L/kg
same,t1/2,[2]; gavage (5 mg/kg),24.4 ± 5.68 h
same,AUC0-72h,[2]; intravenous (5 mg/kg),2610 ± 1340 ng·h/mL
same,AUC0-∞,[2]; intravenous (5 mg/kg),3000 ± 1880 ng·h/mL
same,C6min,[2]; intravenous (5 mg/kg),314 ± 61.4 ng/mL
same,CL,[2]; intravenous (5 mg/kg),34.2 ± 13.6 mL/min/kg
same,MRT0-72h,[2]; intravenous (5 mg/kg),18.8 ± 3.77 h
same,MRT0-∞,[2]; intravenous (5 mg/kg),27.5 ± 11.4 h
same,Vd,[2]; intravenous (5 mg/kg),58.7 ± 15.7 L/kg
same,t1/2,[2]; intravenous (5 mg/kg),22.3 ± 8.39 h
same,F (oral bioavailability),[2]; monkey,64.4%
same,plasma protein binding rate,Plasma protein binding [3],92.5±0.331%
same,plasma protein binding rate,Plasma protein binding [4],90.1±1.05%
same,excretion in original form,[5]; bile,3.91%
same,excretion in original form,[5]; feces,27.5%
same,excretion in original form,[5]; urine,2.18%
same,total excretion rate,[5]; urine and feces,29.7%
same,IC50,ALK1,2590 nM
same,IC50,PDGFRβ,165 nM
same,number of metabolites found in plasma,Metabolites in plasma,4

# — paper PMC11868595, “Safety, pharmacokinetics and efficacy of HA121-28 in patients with advanced solid tumors and RET fusion-positive non-small-cell lung cancer: a multicenter, open-label, single-arm phase 1/2 trial” (Signal Transduction and Targeted Therapy, 2025)
